Assay [1] has as its target mu opioid receptor (Homo sapiens, UniProt P35372). The assay can be described thus: Filtration binding assay: mu opioid receptor.
The target of assay [2] is kappa opioid receptor (Homo sapiens, UniProt P41145). The assay can be described thus: Filtration binding assay: kappa opioid receptor.

Molecules are shown by their SMILES.

kappa opioid receptor, sequence (P41145 whole entry): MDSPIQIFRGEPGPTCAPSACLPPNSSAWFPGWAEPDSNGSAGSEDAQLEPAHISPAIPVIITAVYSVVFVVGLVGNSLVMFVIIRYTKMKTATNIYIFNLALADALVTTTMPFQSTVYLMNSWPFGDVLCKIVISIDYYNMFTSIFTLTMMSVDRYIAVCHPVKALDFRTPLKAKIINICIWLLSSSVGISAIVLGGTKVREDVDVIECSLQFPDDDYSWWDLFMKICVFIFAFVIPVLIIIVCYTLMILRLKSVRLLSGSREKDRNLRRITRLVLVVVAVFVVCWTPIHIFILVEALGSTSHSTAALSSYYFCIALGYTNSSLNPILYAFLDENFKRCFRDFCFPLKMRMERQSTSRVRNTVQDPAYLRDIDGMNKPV
mu opioid receptor, sequence (P35372 whole entry): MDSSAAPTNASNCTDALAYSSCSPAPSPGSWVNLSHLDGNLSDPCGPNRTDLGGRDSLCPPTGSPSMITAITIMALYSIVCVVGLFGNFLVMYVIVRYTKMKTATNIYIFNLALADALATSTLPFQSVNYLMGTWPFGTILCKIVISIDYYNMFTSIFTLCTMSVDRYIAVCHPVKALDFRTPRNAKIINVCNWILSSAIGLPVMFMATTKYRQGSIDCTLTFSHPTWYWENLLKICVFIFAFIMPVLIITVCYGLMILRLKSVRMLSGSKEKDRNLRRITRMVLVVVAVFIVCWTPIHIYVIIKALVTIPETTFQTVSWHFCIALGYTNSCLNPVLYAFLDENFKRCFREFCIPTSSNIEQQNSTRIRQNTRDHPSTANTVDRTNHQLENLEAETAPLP

For the compound `O=C1N(C[C@@H](O)CNc2ccncc2)CN(c2ccc(F)cc2)C12CCN(Cc1cc(C(F)(F)F)cc(C(F)(F)F)c1)CC2` [compound 608], the IC50 in assay [1] and in assay [2] was not below 10 µM in each case.

As for `O=C1N(C[C@@H](O)CN2CCN(c3cccc(C(F)(F)F)c3)CC2)CN(c2ccc(F)cc2)C12CCN(C1Cc3cccc4cccc1c34)CC2` (mixture of isomers) [compound 333], the half-inhibitory concentration (IC50) – broadly, the midpoint of a concentration-inhibition curve – in assay [1] was 0.24 µM; in assay [2], 0.39 µM.

As for `CCCCNC[C@H](O)CN1CN(c2ccc(F)cc2)C2(CCN(CC3CCCCCCC3)CC2)C1=O` [compound 454], the IC50 stood at 0.51 µM in assay [1] and 0.12 µM in assay [2].

In the case of `CSc1cccc(C(=O)N(Cc2ccc(C)cc2)C[C@H](O)CN2CN(c3ccc(F)cc3)C3(CCN(CC4CCCCCCC4)CC3)C2=O)n1` [compound 455], the IC50 in assay [1] stood at 5.16 µM; in assay [2] it was 0.38 µM.

Consider `O=C1N(C[C@@H](O)CNCCc2cccs2)CN(c2ccc(F)cc2)C12CCN(CC1CCCCCCC1)CC2` [compound 26], for which the values for the IC50 in assay [1] and in assay [2] were 0.79 µM and 0.29 µM, respectively.

Take `CNC[C@@H](O)CN1CN(c2ccc(F)cc2)C2(CCN(Cc3cccc4cccc(C)c34)CC2)C1=O` [Compound #660, 1-(4-Fluoro-phenyl)-3-(2-(R)-hydroxy-3-methylamino-propyl)-8-(8-methyl-naphthalen-1-ylmethyl)-1,3,8-triaza-spiro[4.5]decan-4-one]: the affinity in assay [1] corresponds to a Ki of 0.87 µM.

The compound `COc1cc(CCNC[C@@H](O)CN2CN(c3ccc(F)cc3)C3(CCN(Cc4ccc(Cl)cc4)CC3)C2=O)c([N+](=O)[O-])cc1OC` [compound 269] showed an IC50 in assay [1] of 2.49 µM.

For `CNCCNC[C@@H](O)CN1CN(c2ccc(F)cc2)C2(CCN(Cc3cccc4cccc(C)c34)CC2)C1=O` [compound 661], in assay [1], the affinity corresponds to a Ki of 0.8 µM.

With `Cc1cccc2cccc(CN3CCC4(CC3)C(=O)N(C[C@H](O)CN3CC[C@@H](N(C)C)C3)CN4c3ccc(F)cc3)c12` [compound 708], the affinity in assay [1], expressed as Ki, was 0.49 µM.

Consider `COc1ccc(CCNC[C@@H](O)CN2CN(c3ccccc3)C3(CCN(CCc4ccccc4-c4cccs4)CC3)C2=O)cc1` [compound 145], for which the half-maximal inhibitory concentration (IC50) in assay [1] was determined as 0.104 µM.

Turning to `O=C1N(C[C@H](O)CNCCc2cc3ccc(F)cc3[nH]2)CN(c2ccccc2)C12CCN(CCc1ccccc1-c1cccs1)CC2` [compound 142], the IC50 in assay [1] was found to be 0.104 µM.

`O=C1N(C[C@@H](O)CN(Cc2ccccc2)C[C@@H]2CCCC[C@@H]2O)CN(c2ccc(F)cc2)C12CCN(CC1CCCCCCC1)CC2` [compound 290]: the 50% inhibitory concentration (IC50) in assay [1] amounted to 0.93 µM. Against the preceding compound, the IC50 is about 8.9-fold higher.

Take `O=C1N(C[C@@H](O)CNCCN2CCOCC2)CN(c2ccc(F)cc2)C12CCN(Cc1ccc3ccccc3c1)CC2` [compound 259]: the half-maximal inhibitory concentration (IC50) in assay [1] is 0.5 µM.

In turn, `O=C1N(C[C@H](O)CNCCc2ccc3c(c2)OCO3)CN(c2ccc(F)cc2)C12CCN(Cc1ccc(Cl)cc1)CC2` [compound 268] came in with a 50% inhibitory concentration (IC50) in assay [1] of 0.95 µM.

`O=C1N(C[C@@H](O)CN(CCc2ccccc2)Cc2ccccc2)CN(c2ccccc2)C12CCN(CCc1ccccc1-c1cccs1)CC2` [compound 230] gave an IC50 in assay [1] of 0.152 µM.

For `COc1ccc(CCN(C)C[C@H](O)CN2CN(c3ccc(F)cc3)C3(CCN(Cc4ccc5ccccc5c4)CC3)C2=O)cc1OC` [compound 263], the half-inhibitory concentration (IC50) in assay [1] amounted to 0.59 µM.

Consider `O=C1N(C[C@@H](O)CN2C=CCC2)CN(c2ccc(F)cc2)C12CCN(CC1CCCCCCC1)CC2` [compound 70], for which, in assay [1], the IC50 is 0.63 µM.

As to `Cc1cccc2cccc(CN3CCC4(CC3)C(=O)N(C[C@H](O)CN3CCC(O)C3)CN4c3ccc(F)cc3)c12` (some centres unmarked) [compound 712], in assay [1], the inhibitory constant (Ki) – broadly, the dissociation constant of the complex between target and ligand, obtained from inhibition or displacement – came out at 1.95 µM.

On to `O=C1N(C[C@@H](O)CNCCc2ccc3c(c2)OCO3)CN(c2ccc(F)cc2)C12CCN(Cc1ccc3ccccc3c1)CC2` [compound 262], for which the IC50 in assay [1] was 0.85 µM.

As to `CN(C)c1ccc(CNC[C@@H](O)CN2CN(c3ccccc3)C3(CCN(CCc4ccccc4-c4cccs4)CC3)C2=O)cc1` [compound 139], the IC50 in assay [1] is 0.103 µM.

In turn, `COc1ccc(CCN(C)C[C@H](O)CN2CN(c3ccc(F)cc3)C3(CCN(Cc4ccc(Cl)cc4)CC3)C2=O)cc1OC` [compound 270] came in with an IC50 in assay [1] of 0.41 µM.

(Values after US7582649B2, “Hydroxy alkyl substituted 1,3,8-triazaspiro[4.5]decan-4-one derivatives useful for the treatment of ORL-1 receptor mediated disorders” (Janssen Pharmaceutica, NV, priority 2002, dated 2009).)
